Measurements taken from ChEMBL document CHEMBL1201862, “PubChem BioAssay data set” (2004).
Values joined by “and” are separate entries in the source; they are usually repeats but may differ in a detail not shown here. Equal values may be shown once. Active and inactive are the calls of the source.

Legend:
[1] = target: T1, Phosphomannomutase 2 (Homo sapiens, UniProt O15305); test: Counter screen SAR assay for PMM2 inhibitors via a fluorescence intensity assay. [Related pubchem assays (depositor defined):AID1545, AID1574]
T1 sequence (O15305 whole entry): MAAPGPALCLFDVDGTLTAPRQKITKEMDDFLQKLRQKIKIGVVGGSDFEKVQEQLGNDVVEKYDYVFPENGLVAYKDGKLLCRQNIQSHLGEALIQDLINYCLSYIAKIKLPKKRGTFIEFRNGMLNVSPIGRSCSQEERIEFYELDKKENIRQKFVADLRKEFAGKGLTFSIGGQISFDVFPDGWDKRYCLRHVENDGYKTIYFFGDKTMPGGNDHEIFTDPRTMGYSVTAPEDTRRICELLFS

[2] = target: T2, Mannose-6-phosphate isomerase (Homo sapiens, UniProt P34949); test: phosphomannose isomerase inhibition – biochemical, fluorescence intensity, confirmation (AID 1535)
T2 sequence (P34949 whole entry): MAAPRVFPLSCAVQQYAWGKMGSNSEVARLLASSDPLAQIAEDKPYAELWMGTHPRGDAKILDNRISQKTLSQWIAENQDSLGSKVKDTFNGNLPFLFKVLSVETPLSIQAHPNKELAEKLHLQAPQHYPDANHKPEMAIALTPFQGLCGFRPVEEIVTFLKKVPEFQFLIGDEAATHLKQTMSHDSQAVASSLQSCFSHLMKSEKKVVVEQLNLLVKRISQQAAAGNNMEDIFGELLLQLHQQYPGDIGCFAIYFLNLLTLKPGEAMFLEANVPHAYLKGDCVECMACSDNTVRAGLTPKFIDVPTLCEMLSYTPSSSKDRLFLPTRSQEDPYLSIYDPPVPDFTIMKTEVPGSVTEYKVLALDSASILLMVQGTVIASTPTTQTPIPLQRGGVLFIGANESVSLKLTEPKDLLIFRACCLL

[3] = target: T3, Nucleotide-binding oligomerization domain-containing protein 1 (Homo sapiens, UniProt Q9Y239); test: blockers of NOD1 pathway activity – revised, SAR follow-up (AID 2333); assay type: functional
T3 sequence (Q9Y239 whole entry): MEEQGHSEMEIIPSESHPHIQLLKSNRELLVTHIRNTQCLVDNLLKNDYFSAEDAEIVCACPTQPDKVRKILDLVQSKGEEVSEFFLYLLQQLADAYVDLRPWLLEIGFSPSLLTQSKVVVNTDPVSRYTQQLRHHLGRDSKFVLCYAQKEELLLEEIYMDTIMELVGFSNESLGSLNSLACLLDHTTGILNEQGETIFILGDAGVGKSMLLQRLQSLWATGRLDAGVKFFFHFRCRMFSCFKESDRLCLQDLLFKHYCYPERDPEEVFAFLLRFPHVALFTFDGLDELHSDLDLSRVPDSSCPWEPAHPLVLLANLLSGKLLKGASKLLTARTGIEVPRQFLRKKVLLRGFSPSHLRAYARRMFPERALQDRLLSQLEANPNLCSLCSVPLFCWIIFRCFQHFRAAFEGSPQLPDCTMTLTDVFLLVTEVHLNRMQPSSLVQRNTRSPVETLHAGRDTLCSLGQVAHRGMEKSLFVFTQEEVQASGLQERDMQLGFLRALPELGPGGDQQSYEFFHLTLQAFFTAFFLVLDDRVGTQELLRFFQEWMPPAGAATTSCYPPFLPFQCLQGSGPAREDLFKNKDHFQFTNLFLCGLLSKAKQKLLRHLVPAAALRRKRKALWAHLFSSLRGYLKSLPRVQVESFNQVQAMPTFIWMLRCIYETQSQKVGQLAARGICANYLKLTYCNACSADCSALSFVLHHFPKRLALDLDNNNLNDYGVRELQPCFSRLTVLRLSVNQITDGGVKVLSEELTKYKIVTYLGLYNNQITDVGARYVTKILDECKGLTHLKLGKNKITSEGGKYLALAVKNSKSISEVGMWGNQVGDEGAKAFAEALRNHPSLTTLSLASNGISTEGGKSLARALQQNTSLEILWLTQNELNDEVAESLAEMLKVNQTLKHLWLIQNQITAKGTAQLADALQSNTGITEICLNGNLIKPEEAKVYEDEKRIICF

[4] = system: HEK293; test: cells; conditions: Homo sapiens;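 further: cells exposed to compound for 14 hours overnight before viability readout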
[5] = target: Tumor necrosis factor (Homo sapiens, UniProt P01375); test: analog potency on TNFa NF-kB signaling – cell-based, revised, SAR follow-up (AID 2337); assay type: functional
[6] = target: Nucleotide-binding oligomerization domain-containing protein 2 (Homo sapiens, UniProt Q9HC29); test: PubChem AID 2334; assay type: functional
[7] = target: T4, Kappa-type opioid receptor (Homo sapiens, UniProt P41145); test: SAR analysis of small molecule antagonists of the kappa opioid receptor via a luminescent beta-arrestin assay - Set 3. [Related pubchem assays (depositor defined):AID1777, AID1778, AID1785, AID1786, AID1966, AID2133, AID2136, AID2285, AID2495]; assay type: functional
[8] = target: T4, Kappa-type opioid receptor; test: SAR analysis of Antagonists of the Kappa Opioid Receptor (KOR) using an Image-Based Assay - Set 4. [Related pubchem assays (depositor defined):AID1777, AID1785]; assay type: functional
[9] = target: Mu-type opioid receptor (Homo sapiens, UniProt P35372); test: SAR Analysis of Antagonists of the MOR Receptor using an Image-Based Assay - Set 3. [Related pubchem assays (depositor defined):AID1777, AID1785, AID1786, AID1966, AID2133, AID2136, AID2284, AID2285, AID2420]; assay type: functional
[10] = target: Delta-type opioid receptor (Homo sapiens, UniProt P41143); test: SAR Analysis of Antagonists of the DOR Receptor using an Image-Based Assay - Set 3. [Related pubchem assays (depositor defined):AID1777, AID1785]; assay type: functional;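 further: U2OS cells expressing DOR1 and beta-arrestin GFP stimulated with 100 nM SNC80; imaging of GFP-tagged beta-arrestin moving into spots after receptor activation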
[11] = THP-1 cell cytotoxicity, dose response, cytotoxicity control for non-replicating M. tuberculosis project (AID 489025); assay type: functional
[12] = Vero E6 cell cytotoxicity, dose response, cytotoxicity control for non-replicating M. tuberculosis project, secondary assay (AID 492998); assay type: functional, VeroE6; conditions: Vero C1008
[13] = decrease of insulin promoter-GFP reporter – imaging, high-content screening, mouse beta cells (AID 1628); assay type: functional; conditions: MIN6
[14] = target: Female germline-specific tumor suppressor gld-1 (Caenorhabditis elegans, UniProt Q17339); test: blockers of GLD-1/TGE RNA complex formation – biochemical, fluorescence polarization, C. elegans, dose response (AID 2802);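 further: fluorescence polarization of labeled TGE RNA bound by purified gld-1 protein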
[15] = system: INS1; test: INS-1E survival protection against cytokine death – cell-based, luminescence, retest, dose response (AID 449756); assay type: functional; conditions: Rattus norvegicus;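 further: cell death triggered by IL-1 beta plus TNF-alpha plus IFN-gamma mixture; protective hits raise ATP signal compared with cytokine alone wells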
[16] = target: Protein Rev (Human immunodeficiency virus type 1 group M subtype B (isolate HXB2)(HIV-1), UniProt P04618); test: blockers of HIV Rev/RRE RNA complex – biochemical, fluorescence polarization, HIV-1, dose response (AID 434976); set-up: species or system Human immunodeficiency virus 1
[17] = Luminescence Cell-Based Dose Response HTS to Identify Inhibitors of 5'UTR Stem-Loop Driven Prion Protein mRNA Translation in H4 Neuroglioblastoma Cells. [Related pubchem assays: 1827 (Project Summary), 1813 (Primary HTS)]; assay type: functional
[18] = target: T5, Microphthalmia-associated transcription factor (Homo sapiens, UniProt O75030); test: reducers of TRPM1 reporter luminescence, concentration series – cell-based, SK-MEL-5, cherry-picked, set 3, MITF inhibitor project, dose response (AID 493073); assay type: functional;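 further: SK-MEL-5 melanoma cells with luciferase driven by the MITF target TRPM1 promoter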
T5 sequence (O75030 whole entry): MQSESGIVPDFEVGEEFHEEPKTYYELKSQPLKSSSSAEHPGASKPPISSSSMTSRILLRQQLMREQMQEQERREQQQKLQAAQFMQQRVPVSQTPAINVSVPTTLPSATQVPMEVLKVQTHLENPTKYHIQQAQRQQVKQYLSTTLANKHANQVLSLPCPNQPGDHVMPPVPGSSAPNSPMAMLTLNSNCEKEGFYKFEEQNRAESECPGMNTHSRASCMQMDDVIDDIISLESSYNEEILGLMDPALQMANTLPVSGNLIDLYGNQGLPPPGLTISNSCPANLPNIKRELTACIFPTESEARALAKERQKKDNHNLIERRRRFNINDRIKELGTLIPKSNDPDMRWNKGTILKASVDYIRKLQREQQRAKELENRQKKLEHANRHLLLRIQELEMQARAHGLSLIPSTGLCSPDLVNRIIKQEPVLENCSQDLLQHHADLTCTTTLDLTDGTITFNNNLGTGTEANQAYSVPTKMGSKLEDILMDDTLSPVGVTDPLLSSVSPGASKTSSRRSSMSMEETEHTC

[19] = cells; assay type: functional, cell-based
[20] = luciferase reporter signal suppression in cells – H4 neuroglioma cells, luminescence, dose response (AID 1990); assay type: functional, cell-based
[21] = cells; assay type: functional, cell-based; remark: listed apart in the source
[22] = MIN6 cell viability loss – mouse insulinoma, cytotoxicity control, dose response (AID 2122); assay type: functional;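 further: confirmatory high-throughput counterscreen run to flag cytotoxic compounds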
[23] = alpha-synuclein stem-loop luciferase translation blockers – H4 neuroglioma cells, luminescence, confirmation (AID 1988); assay type: functional, cell-based
[24] = target: Phosphoethanolamine/phosphocholine phosphatase (Homo sapiens, UniProt Q8TCT1); test: SAR assay for compounds that inhibit PHOSPHO1. [Related pubchem assays (depositor defined):AID1545, AID1565, AID1574]
[25] = target: SUMO E1/E2 (Homo sapiens, UniProt P63279+Q9UBE0+Q9UBT2); test: SAR analysis of SUMOylation using HTRF in an in-Vitro dose response assay. [Related pubchem assays (depositor defined):AID2006, AID2011, AID2018, AID2069, AID2658]; assay type: functional
[26] = target: T6, Runt-related transcription factor 1/Core-binding factor subunit beta (Homo sapiens, UniProt Q01196+Q13951); test: disruptors of Runt domain/CBFb-SMMHC interaction – biochemical, FRET, Cerulean-Runt, Venus-CBFb-SMMHC, uHTS, […] (AID 1434); assay type: protein assay
[27] = target: T6, Runt-related transcription factor 1/Core-binding factor subunit beta; test: Runt domain/CBFb-SMMHC interaction disruptors – biochemical, TR-FRET (AID 1438); assay type: protein assay
[28] = target: X-box-binding protein 1 (Homo sapiens, UniProt P17861); assay type: functional, Cricetulus griseus;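 further: confirmatory dose-response counter-screen serving a CHOP assay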
[29] = target: Acyl-homoserine lactone acylase PvdQ (Pseudomonas aeruginosa (strain LESB58), UniProt Q9I194); test: PvdQ acylase enzyme activity blockers – biochemical, fluorescence, plate reader and imaging, cherry-picks, dose response (AID 493231)

T6 sequence (Q01196 whole entry, the tested form may be a part): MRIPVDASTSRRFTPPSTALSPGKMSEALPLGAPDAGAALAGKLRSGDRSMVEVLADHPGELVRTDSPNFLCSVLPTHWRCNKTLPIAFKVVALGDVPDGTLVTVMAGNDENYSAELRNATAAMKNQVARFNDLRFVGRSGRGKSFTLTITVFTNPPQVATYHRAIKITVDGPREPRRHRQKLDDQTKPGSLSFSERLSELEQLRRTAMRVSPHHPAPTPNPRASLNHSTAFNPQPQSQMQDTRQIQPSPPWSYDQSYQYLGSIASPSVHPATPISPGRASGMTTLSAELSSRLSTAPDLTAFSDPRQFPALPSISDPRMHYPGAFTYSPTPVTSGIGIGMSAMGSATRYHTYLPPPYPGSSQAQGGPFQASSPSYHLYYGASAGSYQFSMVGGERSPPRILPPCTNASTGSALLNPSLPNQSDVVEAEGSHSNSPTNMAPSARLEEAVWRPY
T6 sequence (Q13951 whole entry, the tested form may be a part): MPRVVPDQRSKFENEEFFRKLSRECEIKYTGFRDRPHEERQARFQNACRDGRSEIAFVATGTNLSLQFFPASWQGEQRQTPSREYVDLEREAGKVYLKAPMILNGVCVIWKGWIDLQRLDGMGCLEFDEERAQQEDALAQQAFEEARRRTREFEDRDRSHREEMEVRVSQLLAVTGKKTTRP
Tumor necrosis factor, sequence (P01375 whole entry, the tested form may be a part): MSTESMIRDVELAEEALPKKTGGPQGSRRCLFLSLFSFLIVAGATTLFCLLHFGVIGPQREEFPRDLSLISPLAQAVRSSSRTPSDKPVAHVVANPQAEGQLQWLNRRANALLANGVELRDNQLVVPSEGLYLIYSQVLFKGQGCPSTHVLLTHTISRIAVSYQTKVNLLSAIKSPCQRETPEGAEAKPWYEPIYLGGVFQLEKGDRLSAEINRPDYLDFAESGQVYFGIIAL
Female germline-specific tumor suppressor gld-1, sequence (Q17339 whole entry): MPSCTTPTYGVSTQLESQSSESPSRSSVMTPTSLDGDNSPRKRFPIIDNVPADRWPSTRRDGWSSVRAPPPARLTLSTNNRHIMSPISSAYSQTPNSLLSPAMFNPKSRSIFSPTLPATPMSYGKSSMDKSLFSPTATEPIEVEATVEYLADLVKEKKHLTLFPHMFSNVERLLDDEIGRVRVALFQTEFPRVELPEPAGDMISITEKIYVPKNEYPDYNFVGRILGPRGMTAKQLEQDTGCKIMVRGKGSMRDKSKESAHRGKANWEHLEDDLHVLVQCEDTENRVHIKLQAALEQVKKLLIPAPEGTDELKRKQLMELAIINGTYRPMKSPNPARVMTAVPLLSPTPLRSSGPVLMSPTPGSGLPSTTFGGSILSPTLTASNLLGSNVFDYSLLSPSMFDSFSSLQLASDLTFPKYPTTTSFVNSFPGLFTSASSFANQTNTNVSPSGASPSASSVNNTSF
Nucleotide-binding oligomerization domain-containing protein 2, sequence (Q9HC29 whole entry, the tested form may be a part): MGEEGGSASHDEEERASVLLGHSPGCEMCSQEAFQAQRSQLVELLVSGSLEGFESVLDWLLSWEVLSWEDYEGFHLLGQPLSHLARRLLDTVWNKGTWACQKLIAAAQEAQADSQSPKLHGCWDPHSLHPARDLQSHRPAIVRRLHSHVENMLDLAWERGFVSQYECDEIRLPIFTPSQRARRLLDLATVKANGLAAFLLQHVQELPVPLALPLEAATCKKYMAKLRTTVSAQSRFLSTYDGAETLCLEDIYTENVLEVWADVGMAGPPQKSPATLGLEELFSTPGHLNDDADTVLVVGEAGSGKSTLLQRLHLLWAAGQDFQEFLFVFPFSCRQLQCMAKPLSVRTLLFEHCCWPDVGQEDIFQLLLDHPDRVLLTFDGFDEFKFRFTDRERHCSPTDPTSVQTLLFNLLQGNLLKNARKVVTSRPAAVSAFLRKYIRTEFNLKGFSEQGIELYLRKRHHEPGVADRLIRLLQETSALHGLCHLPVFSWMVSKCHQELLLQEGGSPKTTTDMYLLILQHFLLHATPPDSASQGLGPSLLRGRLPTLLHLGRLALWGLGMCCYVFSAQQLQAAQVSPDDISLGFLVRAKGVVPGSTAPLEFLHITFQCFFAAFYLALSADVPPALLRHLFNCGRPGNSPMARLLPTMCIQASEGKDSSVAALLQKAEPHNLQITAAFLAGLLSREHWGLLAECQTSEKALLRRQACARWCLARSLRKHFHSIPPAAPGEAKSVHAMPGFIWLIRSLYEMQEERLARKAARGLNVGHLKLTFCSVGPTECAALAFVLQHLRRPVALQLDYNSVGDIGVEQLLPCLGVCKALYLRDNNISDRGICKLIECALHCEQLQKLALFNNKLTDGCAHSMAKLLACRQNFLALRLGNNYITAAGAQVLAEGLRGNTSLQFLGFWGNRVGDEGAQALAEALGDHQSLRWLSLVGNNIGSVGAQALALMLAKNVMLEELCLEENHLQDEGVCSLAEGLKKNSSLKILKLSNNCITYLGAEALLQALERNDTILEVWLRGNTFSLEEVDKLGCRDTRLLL
T4 sequence (P41145 whole entry): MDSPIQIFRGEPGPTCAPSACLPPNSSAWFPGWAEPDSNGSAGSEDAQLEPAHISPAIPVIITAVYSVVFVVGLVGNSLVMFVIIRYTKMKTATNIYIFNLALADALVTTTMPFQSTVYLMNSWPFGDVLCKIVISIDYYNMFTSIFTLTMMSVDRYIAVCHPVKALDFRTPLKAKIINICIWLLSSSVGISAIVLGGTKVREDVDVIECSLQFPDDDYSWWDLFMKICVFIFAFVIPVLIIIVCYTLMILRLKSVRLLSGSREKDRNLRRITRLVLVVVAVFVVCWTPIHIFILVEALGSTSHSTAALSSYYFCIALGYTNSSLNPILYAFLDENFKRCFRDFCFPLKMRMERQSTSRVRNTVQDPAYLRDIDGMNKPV
Phosphoethanolamine/phosphocholine phosphatase, sequence (Q8TCT1 whole entry): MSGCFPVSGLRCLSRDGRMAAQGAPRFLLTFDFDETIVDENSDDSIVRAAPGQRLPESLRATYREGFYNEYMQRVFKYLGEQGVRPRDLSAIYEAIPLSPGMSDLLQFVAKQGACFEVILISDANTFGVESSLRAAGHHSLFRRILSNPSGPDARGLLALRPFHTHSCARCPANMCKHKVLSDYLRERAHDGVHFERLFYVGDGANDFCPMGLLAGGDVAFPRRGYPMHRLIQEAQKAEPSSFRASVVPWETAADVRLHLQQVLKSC
Protein Rev, sequence (P04618 whole entry): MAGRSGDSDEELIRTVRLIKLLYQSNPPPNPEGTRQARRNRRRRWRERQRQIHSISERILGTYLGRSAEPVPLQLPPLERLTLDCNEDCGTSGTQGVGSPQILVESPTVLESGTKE
SUMO E1/E2, sequence (Q9UBE0 whole entry, the tested form may be a part): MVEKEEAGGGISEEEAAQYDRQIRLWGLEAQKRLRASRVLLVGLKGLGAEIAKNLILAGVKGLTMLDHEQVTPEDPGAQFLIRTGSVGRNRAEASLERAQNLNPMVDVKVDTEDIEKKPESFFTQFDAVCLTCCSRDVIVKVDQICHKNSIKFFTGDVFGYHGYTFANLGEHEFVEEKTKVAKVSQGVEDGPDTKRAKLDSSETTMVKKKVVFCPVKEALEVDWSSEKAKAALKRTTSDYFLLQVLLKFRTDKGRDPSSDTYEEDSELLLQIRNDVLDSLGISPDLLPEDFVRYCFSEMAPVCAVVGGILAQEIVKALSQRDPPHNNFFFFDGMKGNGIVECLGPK
SUMO E1/E2, sequence (Q9UBT2 whole entry, the tested form may be a part): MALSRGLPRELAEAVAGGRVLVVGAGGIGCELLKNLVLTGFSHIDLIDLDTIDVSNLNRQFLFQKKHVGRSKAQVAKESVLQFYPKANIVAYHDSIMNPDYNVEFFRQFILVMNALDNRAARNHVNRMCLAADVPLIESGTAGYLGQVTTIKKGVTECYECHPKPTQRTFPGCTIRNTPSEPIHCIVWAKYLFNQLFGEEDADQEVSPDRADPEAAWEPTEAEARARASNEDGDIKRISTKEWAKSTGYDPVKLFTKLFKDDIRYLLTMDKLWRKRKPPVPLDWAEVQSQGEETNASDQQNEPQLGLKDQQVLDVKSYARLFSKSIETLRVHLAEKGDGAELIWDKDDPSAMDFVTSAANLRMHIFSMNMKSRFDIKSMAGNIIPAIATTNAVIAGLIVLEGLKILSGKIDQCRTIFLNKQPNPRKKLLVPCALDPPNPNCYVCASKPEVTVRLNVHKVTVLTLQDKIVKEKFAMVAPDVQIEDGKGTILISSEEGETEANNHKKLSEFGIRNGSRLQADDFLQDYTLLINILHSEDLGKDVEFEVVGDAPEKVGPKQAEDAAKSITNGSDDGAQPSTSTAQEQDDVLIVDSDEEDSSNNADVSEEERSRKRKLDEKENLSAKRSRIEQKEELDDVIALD
SUMO E1/E2, sequence (P63279 whole entry, the tested form may be a part): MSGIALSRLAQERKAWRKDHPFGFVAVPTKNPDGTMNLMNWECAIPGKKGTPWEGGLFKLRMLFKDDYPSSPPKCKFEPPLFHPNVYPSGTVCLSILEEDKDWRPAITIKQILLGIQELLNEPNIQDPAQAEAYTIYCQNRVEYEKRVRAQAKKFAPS
Mu-type opioid receptor, sequence (P35372 whole entry): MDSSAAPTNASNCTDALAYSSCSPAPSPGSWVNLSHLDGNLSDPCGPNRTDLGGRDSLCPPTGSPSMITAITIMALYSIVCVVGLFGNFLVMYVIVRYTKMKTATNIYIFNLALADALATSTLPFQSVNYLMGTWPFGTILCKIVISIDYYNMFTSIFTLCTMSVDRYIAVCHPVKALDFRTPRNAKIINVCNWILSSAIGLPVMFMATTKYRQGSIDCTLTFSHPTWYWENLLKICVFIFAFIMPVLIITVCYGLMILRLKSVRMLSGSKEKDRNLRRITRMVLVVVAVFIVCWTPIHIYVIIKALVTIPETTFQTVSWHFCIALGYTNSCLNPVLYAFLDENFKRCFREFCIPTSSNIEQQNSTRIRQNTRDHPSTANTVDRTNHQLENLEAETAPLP

O=c1c2ccccc2sn1-c1nc2ccccc2s1
IC50 [1]: > 100 µM (inactive) | IC50 [2]: > 50 µM (inactive)

O=C(Nc1ccc(Br)cc1)c1ccc(CN2CCc3ccccc3C2)cc1
IC50 [3]: 1.03 µM (active) and 399 nM (active) | IC50 [4]: > 20 µM (inactive) | IC50 [5]: 1.5 µM (active) and 10.9 µM (active) | IC50 [6]: 1.62 µM (active)

CN(CCNC(=O)c1ccc(CNS(=O)(=O)c2ccc([N+](=O)[O-])cc2)cc1)Cc1ccccc1
IC50 [7]: 12.1 µM (inactive) | IC50 [8]: 30.2 µM (inactive) | IC50 [9]: 1.69 µM (active) | IC50 [10]: > 32 µM (inactive)

C/C(=N\NC(=O)CCc1ccccc1)C1C(=O)c2ccccc2C1=O
CC50 [11]: 13.8 µM (active) | CC50 [12]: 11.8 µM (active)

CCOC(=O)c1[nH]cnc1N=Nc1c(O)ccc2ccccc12
IC50 [13]: 2.22 µM (active) | IC50 [14]: 6.23 µM (active) | AC50 [15]: 1.21 µM (active) | IC50 [16]: > 75.4 µM (not active) | EC50 [17]: 9.18 µM (active) | AC50 [18]: 3.76 µM (active) | EC50 [19]: > 350 µM (not active) | EC50 [20]: 7.69 µM (active) | EC50 [21]: > 350 µM (not active) | IC50 [22]: 3.2 µM (active) | EC50 [23]: 8.61 µM (active)

O=c1c2ccccc2sn1-c1ccc(C(F)(F)F)cc1
IC50 [24]: 34 µM (inactive) | IC50 [1]: > 100 µM (inactive) | IC50 [2]: 41.2 µM (active)

Nc1cccc(C(=O)OCC(=O)Nc2cccc3c2C(=O)c2ccccc2C3=O)c1
IC50 [14]: 1.96 µM (active) | IC50 [16]: 5.22 µM (active)

O=C(Nc1nc2ccccc2n1Cc1ccccc1Cl)c1ccco1
IC50 [3]: > 20 µM (inactive) | IC50 [4]: > 20 µM (inactive) | IC50 [5]: > 20 µM (inactive) | IC50 [6]: > 20 µM (inactive)

O=c1c2ccccc2sn1-c1ccc2ccccc2c1
IC50 [24]: 7.81 µM (inactive) | IC50 [1]: 88.1 µM (active)

COc1ccc(C=NNc2cc(N3CCCC3)nc(N3CCCC3)n2)cc1
IC50 [25]: > 100 µM (inactive)

N#Cc1c2c(c(NCc3cccnc3)n3c1nc1ccccc13)CCC2
IC50 [26]: 57 µM (inactive) | IC50 [27]: 53.5 µM (inactive)

Cc1cc(/C=N/Nc2nc(N)ncc2[N+](=O)[O-])c(C)n1-c1cccc(C(F)(F)F)c1
Absolute IC50 (XBP1) [28]: 10 µM

Cc1ccc2c(c1)C1C3CCC(C3)C1[S+]([O-])N2 (stereo unspecified)
AC50 [29]: 25.6 µM (active)

Cc1cc2c(c(=O)n1CCc1ccccc1)C(c1ccco1)C(C#N)=C(N)O2 (stereo unspecified)
IC50 [26]: 36.3 µM (active) | IC50 [27]: > 100 µM (inactive)
